Among the data in ChEMBL document CHEMBL2074176, “Multidrug resistance protein 1 (MRP1, ABCC1) mediates resistance to mitoxantrone via glutathione-dependent drug efflux” (Mol Pharmacol, 2006) are Activity and IC50 values, retold here.

Assay type in all cases: functional, cell-based
Data set [1] has as its target T1, Multidrug resistance-associated protein 1 (Homo sapiens, UniProt P33527). Put plainly: TP_TRANSPORTER: ATP- and GSH-dependent transport in MCF7/MRP1-10 cells.
In data set [2] the target is T1, Multidrug resistance-associated protein 1. Put plainly: TP_TRANSPORTER: transport in etoposide-selected MCF7 cells.
Data set [3] has the same target. Put plainly: TP_TRANSPORTER: cell accumulation in MCF7/MRP1-10 cells.
Data set [4] shares this target. Put plainly: TP_TRANSPORTER: cell accumulation in MCF7/MRP1-M6 cells.
Data set [5] has the same target. Put plainly: TP_TRANSPORTER: cell accumulation in MCF7/MRP1-M24 cells.

T1 sequence (P33527 whole entry): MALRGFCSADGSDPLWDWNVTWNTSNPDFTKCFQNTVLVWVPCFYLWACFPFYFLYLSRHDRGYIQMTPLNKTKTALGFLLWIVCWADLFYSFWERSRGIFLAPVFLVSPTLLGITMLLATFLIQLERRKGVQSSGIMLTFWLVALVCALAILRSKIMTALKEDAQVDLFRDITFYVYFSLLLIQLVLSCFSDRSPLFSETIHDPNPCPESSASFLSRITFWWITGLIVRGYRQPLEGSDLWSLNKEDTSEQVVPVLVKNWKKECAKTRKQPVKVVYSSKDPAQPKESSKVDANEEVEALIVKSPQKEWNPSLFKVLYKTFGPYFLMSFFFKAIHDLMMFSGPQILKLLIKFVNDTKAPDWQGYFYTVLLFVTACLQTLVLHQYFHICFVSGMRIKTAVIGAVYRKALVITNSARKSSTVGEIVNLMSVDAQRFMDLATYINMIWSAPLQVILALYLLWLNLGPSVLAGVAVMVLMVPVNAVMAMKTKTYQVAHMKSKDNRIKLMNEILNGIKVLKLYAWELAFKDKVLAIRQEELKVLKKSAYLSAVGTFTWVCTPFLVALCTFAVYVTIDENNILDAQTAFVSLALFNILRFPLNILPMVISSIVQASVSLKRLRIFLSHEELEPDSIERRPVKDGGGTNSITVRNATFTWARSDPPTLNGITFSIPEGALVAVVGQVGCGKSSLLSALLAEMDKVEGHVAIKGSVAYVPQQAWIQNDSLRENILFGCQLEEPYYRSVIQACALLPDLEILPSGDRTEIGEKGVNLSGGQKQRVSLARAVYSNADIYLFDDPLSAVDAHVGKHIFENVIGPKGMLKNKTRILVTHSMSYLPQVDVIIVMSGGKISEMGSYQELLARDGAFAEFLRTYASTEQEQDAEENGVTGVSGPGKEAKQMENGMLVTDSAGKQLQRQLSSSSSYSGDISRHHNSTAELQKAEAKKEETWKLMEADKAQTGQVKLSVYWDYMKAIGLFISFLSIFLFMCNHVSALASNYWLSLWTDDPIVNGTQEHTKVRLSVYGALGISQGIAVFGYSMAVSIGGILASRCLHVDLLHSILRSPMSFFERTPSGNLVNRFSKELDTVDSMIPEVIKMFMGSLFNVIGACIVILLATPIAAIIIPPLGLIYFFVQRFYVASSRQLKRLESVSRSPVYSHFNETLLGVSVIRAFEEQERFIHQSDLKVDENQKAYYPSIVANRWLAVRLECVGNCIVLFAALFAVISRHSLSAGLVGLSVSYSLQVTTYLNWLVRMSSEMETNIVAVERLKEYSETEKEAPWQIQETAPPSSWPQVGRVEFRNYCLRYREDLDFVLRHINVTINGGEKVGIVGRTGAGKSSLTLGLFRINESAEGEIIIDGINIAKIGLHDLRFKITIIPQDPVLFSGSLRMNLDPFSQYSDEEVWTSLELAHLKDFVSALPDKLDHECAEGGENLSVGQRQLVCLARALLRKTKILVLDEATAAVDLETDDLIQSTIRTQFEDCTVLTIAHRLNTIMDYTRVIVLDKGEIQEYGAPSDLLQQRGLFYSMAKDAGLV

`O=C1c2c(O)ccc(O)c2C(=O)c2c(NCCNCCO)ccc(NCCNCCO)c21` [MITOXANTRONE]: the Activity result in data set [1] and in data set [2] was “substrate [+]” in each case. Also, the IC50 (in general, the concentration needed to halve the response being measured) in data set [3] was determined as 1.9 nM; in data set [4], 1.5 nM; in data set [5], 1.5 nM.
